# Measured values: patent US20060211744A1, “3-Pyridinecarboxamide reduces nerve degeneration” (Children's Medical Center, priority 2005, published 2006)
# Test system: cultured DRG neurons (transected axons)
# Assay: Axon degeneration after transection of axons of cultured DRG neurons (Wallerian degeneration)
# Assay type: cell-based
# Conditions: sirturin inhibitors; nicotinamide at 50 μM
# Protocol: As a first step in examining the role of NAD in Wallerian degeneration, we used an ultra-sensitive high-performance liquid chromatography (HPLC) method (Micheli and Sestini, 1997) to measure the concentration of NAD and its derivatives in degenerating axons. To do this, the acidic lysates were prepared from axonal segments collected at different time points after transecting the axons from cultured dorsal root ganglia (DRG) and resolved by reverse-phase chromatography. 2 hr after axotomy, when the transected axons were still morphologically indistinguishable from their uncut controls, NAD levels began to decrease. This NAD decrease continued over the course of degeneration, reaching about 50% at 4 hr post-axotomy, to almost undetectable levels by 6 hr after axotomy, when early morphological signs of degeneration began to develop. […] By a similar approach of alkaline extraction (Micheli and Sestini, 1997), it has been difficult for us to detect NADH in the axonal extracts, presumably due to the low abundance of NADH and the high NAD/NADH ratio reported in mammalian cells (Zhang et al., 2002, Kasischke et al., 2004, Kannurpatti et al., 2004).
# To definitively determine whether preventing the local decrease in NAD levels could mediate axon protection, we employed soma-free axonal segments that have been separated from their soma as models to examine the protective effects of different pharmacological treatments. It has been shown that exogenously provided NAD, when directly added to the culture medium of DRG neurons, can be transported across the axonal membrane (Araki et al., 2004). Thus, we first examined the protective effects of different concentrations of NAD added to the culture before or after axon transection and removal of ganglia.
# To further assess the local and nuclear contribution to such an NAD-dependent protection, we compared the protective effects of NAD provided at different time points. […] In this respect, our results are inconsistent with those shown by Araki et al (2004), possibly due to the different concentrations of NAD used in our studies (1-20 mM) and by Araki et al (0.1 to 1 mM).
# We next attempted to explore the possible mechanisms underlying this local NAD-dependent axon protection. […] A possible explanation for this discrepancy between Araki et al (2004) and our results is the different approaches used to block Sirt1 activity. […] It is known that […], other sirturins exist and some of these proteins are localized in the cytoplasmic compartment (Onyango et al., 2002; North et al., 2003).
smiles,measurement,value
"NC(=O)c1cccnc1 [nicotinamide, 3-pyridinecarboxamide]",attenuation of the protective effect of Nmnat1 or NAD,did not attenuate the protective effect
